For one data set, the target named is CYP3A4 (Homo sapiens, UniProt P08684). The data set is described as follows: Cytochrome P450 (CYP450) Inhibition Assay, CYP3A4 (Vivid fluorescence, BOMCC substrate). As to conditions: human, P450 Baculosomes (recombinant CYP3A4), probe BOMCC (Vivid substrate).
Another data set relates to sodium channel. Briefly: Guanidine influx assay (14C-guanidine radiotracer flux, in vitro). Type of data set: cell-based, human or rat. As to conditions: guanidine influx assay using a known cell line that expresses a sodium channel. Put shortly:
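Human or rat sodium channels stably expressed in endogenous or recombinant cells, plated ~100,000 cells/well for 20-24 h at 37 °C. Cells were treated with test agent in low-sodium choline HEPES saline plus aconitine and 14C-guanidine at ambient temperature, washed, and counted by scintillation; IC50 from 4-parameter logistic fit.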

One may read the inhibition as the change of the read-out against control, counted positive when it falls. In general, melting point refers to the temperature of the solid-liquid transition. The pIC50 is the negative decadic logarithm of the IC50, by convention in mol/L.

pIC50: −log10 of the molar value.

Sequence of CYP3A4 (P08684 whole entry): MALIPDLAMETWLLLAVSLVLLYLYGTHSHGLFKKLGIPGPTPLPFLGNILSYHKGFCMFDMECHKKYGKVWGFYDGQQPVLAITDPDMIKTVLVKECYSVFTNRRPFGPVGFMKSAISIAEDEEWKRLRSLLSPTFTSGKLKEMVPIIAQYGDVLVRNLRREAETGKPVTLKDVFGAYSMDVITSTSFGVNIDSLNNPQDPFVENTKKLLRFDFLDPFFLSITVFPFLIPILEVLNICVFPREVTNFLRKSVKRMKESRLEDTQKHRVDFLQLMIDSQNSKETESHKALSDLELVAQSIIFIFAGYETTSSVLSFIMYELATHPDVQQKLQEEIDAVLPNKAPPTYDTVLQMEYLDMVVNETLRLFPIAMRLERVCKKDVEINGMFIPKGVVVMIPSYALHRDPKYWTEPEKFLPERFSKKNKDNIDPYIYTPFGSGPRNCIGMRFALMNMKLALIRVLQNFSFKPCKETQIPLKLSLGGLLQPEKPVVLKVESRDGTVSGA

`NC(=O)c1cccc(CN2C(=O)C3(COc4cc5c(cc43)OCCO5)c3ccccc32)c1` (stereo not drawn) [Example 12.61, 3-[(2′-oxo-2,3-dihydrospiro[furo[2,3-g][1,4]benzodioxine-8,3′-indol]-1′(2′H)-yl)methyl]benzamide] showed a melting point of 130 to 135 °C. Besides, on CYP3A4, the inhibition at 10 µM was more than 50%. For the same molecule, the pIC50 in the data set with sodium channel was 6.00 to 7.00.
Taken in the same sequence, the figures for `CN(C)C(=O)c1cccc(CN2C(=O)C3(COc4cc5c(cc43)OCCO5)c3ccccc32)c1` (stereo not drawn) [Example 12.62, N,N-dimethyl-3-[(2′-oxo-2,3-dihydrospiro[furo[2,3-g][1,4]benzodioxine-8,3′-indol]-1′(2′H)-yl)methyl]benzamide] were 90 to 96 °C, more than 50% and 6.00 to 7.00.
On the same counts, the results for `O=C(Nc1ccccc1F)c1ccc(CN2C(=O)C3(COc4cc5c(cc43)OCCO5)c3ccccc32)cc1` (stereo not drawn) [Example 12.65, N-(2-fluorophenyl)-4-[(2′-oxo-2,3-dihydrospiro[furo[2,3-g][1,4]benzodioxine-8,3′-indol]-1′(2′H)-yl)methyl]benzamide] are 245 to 251 °C, less than 50% and 6.00 to 7.00.
On the same counts, the results for `O=C(CN1C(=O)C2(COc3cc4c(cc32)OCCO4)c2ccccc21)Nc1ccccc1F` (stereo not drawn) [Example 13.7, N-(2-fluorophenyl)-2-(2′-oxo-2,3-dihydrospiro[furo[2,3-g][1,4]benzodioxine-8,3′-indol]-1′(2′H)-yl)acetamide] are 117 to 119 °C, less than 50% and 7.00 to 9.00.
In turn, `O=C(NCCCN1C(=O)C2(COc3cc4c(cc32)CCO4)c2ccccc21)c1ccccc1OC(F)(F)F` (stereo not drawn) [Example 13.11, N-[3-(2′-oxo-5,6-dihydrospiro[benzo[1,2-b:5,4-b′]difuran-3,3′-indol]-1′(2′H)-yl)propyl]-2-(trifluoromethoxy)benzamide] yielded a melting point of 65 to 70 °C. Besides, at CYP3A4, the inhibition at 10 µM is more than 50%. The negative logarithm of the IC50 (pIC50) in the data set with sodium channel is 6.00 to 7.00.
On the same counts, the results for `C[C@H](O)CN1C(=O)C2(COc3cc4c(cc32)CCO4)c2ccccc21` (stereo partly drawn) [Example 14, 1′-[(2S)-2-hydroxypropyl]-5,6-dihydrospiro[benzo[1,2-b:5,4-b′]difuran-3,3′-indol]-2′(1′H)-one] are 171 to 174 °C, less than 50% and 6.00 to 7.00.
On the same counts, the results for `C[C@@H](CN1C(=O)C2(COc3cc4c(cc32)CCO4)c2ccccc21)OCc1ccccc1` (stereo partly drawn) [Example 14.1, 1′-[(2S)-2-(benzyloxy)propyl]-5,6-dihydrospiro[benzo[1,2-b:5,4-b′]difuran-3,3′-indol]-2′(1′H)-one] are 45 to 47 °C, more than 50% and 6.00 to 7.00.
With `C[C@@H](CN1C(=O)C2(COc3cc4c(cc32)CCO4)c2ccccc21)OCc1ccc(F)cc1` (stereo partly drawn) [Example 14.2, 1′-{(2S)-2-[(4-fluorobenzyl)oxy]propyl}-5,6-dihydrospiro[benzo[1,2-b:5,4-b′]difuran-3,3′-indol]-2′(1′H)-one], the melting point lay in the range of 55 to 60 °C. For the same molecule, on CYP3A4, the inhibition at 10 µM is more than 50%. Besides, the pIC50 in the data set on sodium channel is 6.00 to 7.00.
On the same counts, the results for `C[C@@H](CN1C(=O)C2(COc3cc4c(cc32)CCO4)c2ccccc21)OCc1ccccn1` (stereo partly drawn) [Example 14.3, 1′-[(2S)-2-(pyridin-2-ylmethoxy)propyl]-5,6-dihydrospiro[benzo[1,2-b:5,4-b′]difuran-3,3′-indol]-2′(1′H)-one] are 46 to 54 °C, more than 50% and 5.00 to 6.00.
On the same counts, the results for `CC(O)CCN1C(=O)C2(COc3cc4c(cc32)CCO4)c2ccccc21` (stereo not drawn) [Example 14.4, 1′-(3-hydroxybutyl)-5,6-dihydrospiro[benzo[1,2-b:5,4-b′]difuran-3,3′-indol]-2′(1′H)-one] are 64 to 66 °C, less than 50% and 6.00 to 7.00.
Taken in the same sequence, the figures for `O=C1N(CCC(O)C(F)(F)F)c2ccccc2C12COc1cc3c(cc12)CCO3` (stereo not drawn) [Example 14.5, 1′-(4,4,4-trifluoro-3-hydroxybutyl)-5,6-dihydrospiro[benzo[1,2-b:5,4-b′]difuran-3,3′-indol]-2′(1′H)-one] were 124 to 126 °C, more than 50% and 6.00 to 7.00.
Consider `CC(C)CCNCCCN1C(=O)C2(COc3cc4c(cc32)CCO4)c2ccccc21.Cl` (stereo not drawn) [Example 15.1, 1′-{3-[(3-methylbutyl)amino]propyl}-5,6-dihydrospiro[benzo[1,2-b:5,4-b′]difuran-3,3′-indol]-2′(1′H)-one hydrochloride], for which the melting point lay within 98 to 101 °C. For the same molecule, the inhibition at 10 µM at CYP3A4 was more than 50%. Moreover, the pIC50 in the data set on sodium channel is 5.00 to 6.00.
`CCCCN(C)CCCN1C(=O)C2(COc3cc4c(cc32)CCO4)c2ccccc21.Cl` (stereo not drawn) [Example 15.2, 1′-{3-[butyl(methyl)amino]propyl}-5,6-dihydrospiro[benzo[1,2-b:5,4-b′]difuran-3,3′-indol]-2′(1′H)-one hydrochloride]: the melting point is 96 to 99 °C. Moreover, at CYP3A4, the inhibition at 10 µM is more than 50%. Besides, the negative logarithm of the IC50 (pIC50) in the data set with sodium channel was 5.00 to 6.00.
Taken in the same sequence, the figures for `Cl.O=C1N(CCCNCC(F)(F)F)c2ccccc2C12COc1cc3c(cc12)CCO3` (stereo not drawn) [Example 15.3, 1′-{3-[(2,2,2-trifluoroethyl)amino]propyl}-5,6-dihydrospiro[benzo[1,2-b:5,4-b′]difuran-3,3′-indol]-2′(1′H)-one hydrochloride] were 124 to 126 °C, more than 50% and 6.00 to 7.00.
On the same counts, the results for `Cl.N#CCCNCCCN1C(=O)C2(COc3cc4c(cc32)CCO4)c2ccccc21` (stereo not drawn) [Example 15.4, 3-{[3-(2′-oxo-5,6-dihydrospiro[benzo[1,2-b:5,4-b′]difuran-3,3′-indol]-1′(2′H)-yl)propyl]amino}propanenitrile hydrochloride] are 214 to 216 °C, more than 50% and 6.00 to 7.00.
Taken in the same sequence, the figures for `CN(C)c1ccc(-c2cccc3c2C2(COc4cc5c(cc42)CCO5)C(=O)N3Cc2ccc(C(F)(F)F)o2)cn1` (stereo not drawn) [Example 16.11, 4′-[6-(dimethylamino)pyridin-3-yl]-1′-{[5-(trifluoromethyl)furan-2-yl]methyl}-5,6-dihydrospiro[benzo[1,2-b:5,4-b′]difuran-3,3′-indol]-2′(1′H)-one] were 223 to 225 °C, more than 50% and 6.00 to 7.00.
As to `CN(C)c1ccc(-c2cccc3c2C2(COc4cc5c(cc42)OCO5)C(=O)N3Cc2ccc(Cl)s2)cn1` (stereo not drawn) [Example 16.12, 1′-[(5-chloro-2-thienyl)methyl]-4′-[6-(dimethylamino)pyridin-3-yl]spiro[furo[2,3-f][1,3]benzodioxole-7,3′-indol]-2′(1′H)-one], the melting point lay within 215 to 218 °C. Also, the inhibition at 10 µM at CYP3A4 is more than 50%. The negative-log IC50 (pIC50) in the data set on sodium channel is 6.00 to 7.00.
As to `O=C1N(Cc2ccc(Cl)s2)c2cccc(-c3ccoc3)c2C12COc1cc3c(cc12)OCO3` (stereo not drawn) [Example 16.13, 1′-[(5-chloro-2-thienyl)methyl]-4′-(3-furyl)spiro[furo[2,3-f][1,3]benzodioxole-7,3′-indol]-2′(1′1-1)-one], the melting point fell in the range of 166 to 168 °C. Further, the inhibition at 10 µM on CYP3A4 is more than 50%. Moreover, the pIC50 in the data set with sodium channel is 6.00 to 7.00.
